Laboratory results published in the NIST ThermoML archive (doi:10.1021/je1007923).
± gives the expanded uncertainty stated by the source.

Details: 101.33 kPa, Liquid, Vibrating tube method

Row | mass density (313.15 K) [kg/m3] | mass density (298.15 K) [kg/m3] | SMILES | further results
1 | – | – | Cc1ccccc1O [2-methylphenol] | mass density (308.15 K): 1032.73 ± 0.28 kg/m3
2 | – | – | Cc1cccc(O)c1 [3-methylphenol] | mass density (293.15 K): 1033.85 ± 0.09 kg/m3
3 | 1018.8 ± 0.08 | – | Cc1ccc(O)cc1 [4-methylphenol] | –
4 | – | 679.43 ± 0.23 | CCCCCCC [heptane] | –
5 | – | 698.49 ± 0.23 | CCCCCCCC [octane] | –
6 | 1058.3 ± 0.11 | – | Oc1ccccc1 [phenol] | –
